Experimental findings from patent publication US8440708B2, “Triazole-substituted arylamides as P2X3 and P2X2/3 antagonists” (Roche Palo Alto LLC, priority 2007, dated 2013) are described below.

Assay [1] deals with T1, rat P2X3 receptor (Rattus norvegicus, UniProt P49654).
T1 construct: expressed in transfected cells; host or cells: CHO-K1
T1 sequence (P49654 1-397): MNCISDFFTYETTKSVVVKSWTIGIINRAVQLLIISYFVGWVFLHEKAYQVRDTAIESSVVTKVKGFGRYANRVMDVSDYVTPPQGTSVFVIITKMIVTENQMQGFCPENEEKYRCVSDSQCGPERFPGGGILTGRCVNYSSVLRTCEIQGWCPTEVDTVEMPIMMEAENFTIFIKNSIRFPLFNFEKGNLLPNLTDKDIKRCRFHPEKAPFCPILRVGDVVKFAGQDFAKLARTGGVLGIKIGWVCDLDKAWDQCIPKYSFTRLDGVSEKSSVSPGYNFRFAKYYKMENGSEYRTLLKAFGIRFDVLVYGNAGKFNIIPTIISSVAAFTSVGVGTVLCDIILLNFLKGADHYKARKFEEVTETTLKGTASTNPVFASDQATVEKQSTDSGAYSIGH
Description: P2X3/P2X2/3 FLIPR (Fluorometric Imaging Plate Reader) Assay, P2X3. In kind it is cell-based. Conditions: CHO-K1 cells transfected with rat P2X3; agonist α,β-meATP 1 μM; Table 1; read-out: P2X3 pKi (converted). On the procedure:
(§1) P2X3/P2X2/3 FLIPR (Fluorometric Imaging Plate Reader) Assay
(§2) CHO-K1 cells were transfected with cloned rat P2X3 or human P2X2/3 receptor subunits and passaged in flasks. 18-24 hours before the FLIPR experiment, cells were released from their flasks, centrifuged, and resuspended in nutrient medium at 2.5×10^5 cells/ml. The cells were aliquoted into black-walled 96-well plates at a density of 50,000 cells/well and incubated overnight in 5% CO2 at 37° C. On the day of the experiment, cells were washed in FLIPR buffer (calcium- and magnesium-free Hank's balanced salt solution, 10 mM HEPES, 2 mM CaCl2, 2.5 mM probenecid; FB). Each well received 100 μl FB and 100 μl of the fluorescent dye Fluo-3 AM [2 μM final conc.]. After a 1 hour dye loading incubation at 37° C., the cells were washed 4 times with FB, and a final 75 μl/well FB was left in each well.
(§3) Test compounds (dissolved in DMSO at 10 mM and serially diluted with FB) or vehicle were added to each well (25 μl of a 4× solution) and allowed to equilibrate for 20 minutes at room temperature. The plates were then placed in the FLIPR and a baseline fluorescence measurement (excitation at 488 nm and emission at 510-570 nm) was obtained for 10 seconds before a 100 μl/well agonist or vehicle addition. The agonist was a 2× solution of α,β-meATP producing a final concentration of 1 μM (P2X3) or 5 μM (P2X2/3). Fluorescence was measured for an additional 2 minutes at 1 second intervals after agonist addition. A final addition of ionomycin (5 μM, final concentration) was made to each well of the FLIPR test plate to establish cell viability and maximum fluorescence of dye-bound cytosolic calcium. Peak fluorescence in response to the addition of α,β-meATP (in the absence and presence of test compounds) was measured and inhibition curves generated using nonlinear regression. PPADS, a standard P2X antagonist, was used as a positive control.

Assay [2] concerns the target T2, human P2X2/3 receptor (Homo sapiens, UniProt P56373+Q9UBL9).
T2 construct: expressed in transfected cells; host or cells: CHO-K1
T2 sequence (Q9UBL9 1-471): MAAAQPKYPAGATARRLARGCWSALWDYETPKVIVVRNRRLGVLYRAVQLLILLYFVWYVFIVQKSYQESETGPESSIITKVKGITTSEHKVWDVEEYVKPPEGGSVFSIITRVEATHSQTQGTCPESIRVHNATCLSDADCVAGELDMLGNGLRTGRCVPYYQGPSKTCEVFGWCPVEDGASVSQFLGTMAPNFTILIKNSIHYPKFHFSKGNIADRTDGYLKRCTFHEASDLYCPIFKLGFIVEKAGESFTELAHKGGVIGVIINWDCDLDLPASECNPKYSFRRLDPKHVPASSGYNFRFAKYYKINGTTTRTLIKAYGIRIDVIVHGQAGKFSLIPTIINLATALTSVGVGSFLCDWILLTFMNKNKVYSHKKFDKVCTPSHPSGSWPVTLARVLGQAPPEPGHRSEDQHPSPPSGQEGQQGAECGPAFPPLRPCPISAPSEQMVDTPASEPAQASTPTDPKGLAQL
T2 sequence (P56373 1-397): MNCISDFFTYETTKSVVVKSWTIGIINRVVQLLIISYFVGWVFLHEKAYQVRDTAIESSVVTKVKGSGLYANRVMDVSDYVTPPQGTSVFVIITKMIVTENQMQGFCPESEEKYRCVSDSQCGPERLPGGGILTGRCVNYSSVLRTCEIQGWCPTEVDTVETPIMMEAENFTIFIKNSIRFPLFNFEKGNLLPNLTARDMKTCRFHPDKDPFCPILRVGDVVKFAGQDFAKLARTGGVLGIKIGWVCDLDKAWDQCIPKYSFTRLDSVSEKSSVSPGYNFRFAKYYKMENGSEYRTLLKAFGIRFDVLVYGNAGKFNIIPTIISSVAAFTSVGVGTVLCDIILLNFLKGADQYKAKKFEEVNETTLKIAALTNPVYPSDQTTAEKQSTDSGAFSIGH
Description: P2X3/P2X2/3 FLIPR (Fluorometric Imaging Plate Reader) Assay, P2X2/3. In kind it is cell-based. Here is the method:
as §1, §2, §3

Where [3] appears, read: CHO-K1 cells transfected with human P2X2/3, agonist α,β-meATP 5 μM, Table 1, read-out: P2X2/3 pKi (converted).

SMILES strings stand for the structures. Where two headings read alike, the source gives them in different places.

For the compound `Cc1ccc(-c2cc(C(=O)NC(C)c3cnccn3)cc(-n3ncnc3C(C)C)c2)c(F)c1` (stereo not drawn) [Compound 36, 2′-Fluoro-5-(5-isopropyl-[1,2,4]triazol-1-yl)-4′-methyl-biphenyl-3-carboxylic acid (1-pyrazin-2-yl-ethyl)-amide], the Ki in assay [1] was 3.72 nM; in assay [2] (setting [3]), 22.9 nM; in assay [2] (text b666, CHO-K1 cells, α,β-meATP 5 μM, read-out: pKi for the P2X2/3 receptor (converted)), ~22.9 nM.
Take `CCn1nncc1-c1cc(C(=O)N[C@H](C)COC)cc(-c2ccc(C)cc2)c1` [Compound 37, 5-(3-Ethyl-3H-[1,2,3]triazol-4-yl)-4′-methyl-biphenyl-3-carboxylic acid ((R)-2-methoxy-1-methyl-ethyl)-amide]: the Ki in assay [1] was 380 nM; in assay [2] (setting [3]), 6760 nM.
Consider `CCn1nncc1-c1cc(C(=O)NC(C)c2cnccn2)cc(-c2ccc(C)cc2)c1` (stereo not drawn) [Compound 38, 5-(3-Ethyl-3H-[1,2,3]triazol-4-yl)-4′-methyl-biphenyl-3-carboxylic acid (1-pyrazin-2-yl-ethyl)-amide], for which the Ki in assay [1] is 9.77 nM; in assay [2] (setting [3]), 550 nM.
Consider `CCn1cc(-c2cc(C(=O)N[C@H](C)COC)cc(-c3ccc(C)cc3)c2)nn1` [Compound 39, 5-(1-Ethyl-1H-[1,2,3]triazol-4-yl)-4′-methyl-biphenyl-3-carboxylic acid ((R)-2-methoxy-1-methyl-ethyl)-amide], for which the Ki in assay [1] was 8510 nM; in assay [2] (setting [3]) it was 10000 nM.
The corresponding values for `CCn1cc(-c2cc(C(=O)N[C@@H](C)CO)cc(-c3ccc(C)cc3)c2)nn1` [Compound 40, 5-(1-Ethyl-1H-[1,2,3]triazol-4-yl)-4′-methyl-biphenyl-3-carboxylic acid ((S)-2-hydroxy-1-methyl-ethyl)-amide] are 10000 nM and 10000 nM.
The corresponding values for `CCn1cc(-c2cc(C(=O)NC(C)c3cnccn3)cc(-c3ccc(C)cc3)c2)nn1` (stereo not drawn) [Compound 41, 5-(1-Ethyl-1H-[1,2,3]triazol-4-yl)-4′-methyl-biphenyl-3-carboxylic acid (1-pyrazin-2-yl-ethyl)-amide] are 182 nM and 7410 nM.
As to `CCn1cnnc1-c1cc(C(=O)NC(C)c2cnccn2)cc(-c2ccc(C)cc2)c1` (stereo not drawn) [Compound 43, 5-(4-Ethyl-4H-[1,2,4]triazol-3-yl)-4′-methyl-biphenyl-3-carboxylic acid (1-pyrazin-2-yl-ethyl)-amide], the Ki in assay [1] is 7.76 nM; in assay [2] (setting [3]) it was 813 nM.
The corresponding values for `CC(NC(=O)c1cc(-c2ccc(Cl)cc2)cc(-n2ncnc2N(C)C)c1)c1cnccn1` (stereo not drawn) [Compound 44, 4′-Chloro-5-(5-dimethylamino-[1,2,4]triazol-1-yl)-biphenyl-3-carboxylic acid (1-pyrazin-2-yl-ethyl)-amide] are 81.3 nM and 759 nM.
In the case of `COCc1ncnn1-c1cc(C(=O)N[C@@H](C)CO)cc(-c2ccc(C)cc2)c1` [Compound 45, 5-(5-Methoxymethyl-[1,2,4]triazol-1-yl)-4′-methyl-biphenyl-3-carboxylic acid ((S)-2-hydroxy-1-methyl-ethyl)-amide], the Ki was 12.9 nM in assay [1] and 3160 nM in assay [2] (setting [3]).
Turning to `COCc1ncnn1-c1cc(C(=O)NC(C)c2cnccn2)cc(-c2ccc(C)cc2)c1` (stereo not drawn) [Compound 46, 5-(5-Methoxymethyl-[1,2,4]triazol-1-yl)-4′-methyl-biphenyl-3-carboxylic acid (1-pyrazin-2-yl-ethyl)-amide], the Ki in assay [1] is 5.13 nM; in assay [2] (setting [3]), 204 nM.
In the case of `COC(C)c1ncnn1-c1cc(C(=O)N[C@@H](C)CO)cc(-c2ccc(C)cc2)c1` (stereo partly drawn) [Compound 47, 5-[5-(1-Methoxy-ethyl)-[1,2,4]triazol-1-yl]-4′-methyl-biphenyl-3-carboxylic acid ((S)-2-hydroxy-1-methyl-ethyl)-amide], the Ki in assay [1] is 4.68 nM; in assay [2] (setting [3]), 2040 nM.
The corresponding values for `COC(C)c1ncnn1-c1cc(C(=O)NC(C)c2cnccn2)cc(-c2ccc(C)cc2)c1` (stereo not drawn) [Compound 48, 5-[5-(1-Methoxy-ethyl)-[1,2,4]triazol-1-yl]-4′-methyl-biphenyl-3-carboxylic acid (1-pyrazin-2-yl-ethyl)-amide] are 3.89 nM and 43.7 nM.
Take `Cc1ccc(-c2cc(C(=O)NC(C)c3cnccn3)cc(-n3ncnc3C(C)O)c2)cc1` (stereo not drawn) [Compound 49, 5-[5-(1-Hydroxy-ethyl)-[1,2,4]triazol-1-yl]-4′-methyl-biphenyl-3-carboxylic acid (1-pyrazin-2-yl-ethyl)-amide]: the results for the Ki in assay [1] and in assay [2] (setting [3]) were 5.13 nM and 282 nM, respectively.
The corresponding values for `COc1ncnn1-c1cc(C(=O)NC(C)c2cnccn2)cc(-c2ccc(Cl)cc2)c1` (stereo not drawn) [Compound 50, 4′-Chloro-5-(5-methoxy-[1,2,4]triazol-1-yl)-biphenyl-3-carboxylic acid (1-pyrazin-2-yl-ethyl)-amide] are 26.9 nM and 537 nM.
The corresponding values for `CC(NC(=O)c1cc(-c2ccc(Cl)cc2)cc(-n2cncn2)c1)c1cnccn1` (stereo not drawn) [Compound 51, 4′-Chloro-5-[1,2,4]triazol-1-yl-biphenyl-3-carboxylic acid (1-pyrazin-2-yl-ethyl)-amide] are 200 nM and 2950 nM.
The corresponding values for `CC(C)Oc1ncnn1-c1cc(C(=O)NC(C)c2cnccn2)cc(-c2ccc(Cl)cc2)c1` (stereo not drawn) [Compound 52, 4′-Chloro-5-(5-isopropoxy-[1,2,4]triazol-1-yl)-biphenyl-3-carboxylic acid (1-pyrazin-2-yl-ethyl)-amide] are 14.1 nM and 891 nM.
For the compound `Cc1ccc(-c2cc(C(=O)NC(C)c3cnccn3)cc(-c3ncnn3C(C)C)c2)cc1` (stereo not drawn) [Compound 53, 5-(2-Isopropyl-2H-[1,2,4]triazol-3-yl)-4′-methyl-biphenyl-3-carboxylic acid (1-pyrazin-2-yl-ethyl)-amide], the Ki in assay [1] is 12.9 nM; in assay [2] (setting [3]), 309 nM.
The corresponding values for `Cc1ccc(-c2cc(C(=O)N[C@@H](C)CO)cc(-c3ncnn3C(C)C)c2)cc1` [Compound 54, 5-(2-Isopropyl-2H-[1,2,4]triazol-3-yl)-4′-methyl-biphenyl-3-carboxylic acid (2-hydroxy-1-methyl-ethyl)-amide] are 21.4 nM and 2450 nM.
The corresponding values for `Cc1ccc(-c2cc(C(=O)N[C@@H](C)CO)cc(-n3ncnc3C(C)C)c2)nc1` [Compound 55, N-(2-Hydroxy-1-methyl-ethyl)-3-(5-isopropyl-[1,2,4]triazol-1-yl)-5-(5-methyl-pyridin-2-yl)-benzamide] are 5.37 nM and 457 nM.
